Test results from PubChem BioAssay (NCI).
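These data come from cells grown in 96-well plates and exposed to compound for 48 hours at five concentrations. TGI denotes the concentration required for complete inhibition of growth.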

Key:
Experiment in all cases: NCI tumour cell line growth inhibition, 48 h
SNB-19 CNS = test system: SNB-19 CNS
SK-OV-3 ovarian = test system: SK-OV-3 ovarian
M14 melanoma = test system: M14 melanoma
A498 renal = test system: A498 renal
NCI-H23 lung = test system: NCI-H23 lung
ACHN renal = test system: ACHN renal
OVCAR-3 ovarian = test system: OVCAR-3 ovarian
SR leukemia = test system: SR leukemia
HOP-92 NSCLC = test system: HOP-92 NSCLC
RPMI-8226 leukemia = test system: RPMI-8226 leukemia

| Structure (SMILES) | TGI (SNB-19 CNS) [µM] | TGI (SK-OV-3 ovarian) [µM] | TGI (M14 melanoma) [µM] | TGI (A498 renal) [µM] | TGI (NCI-H23 lung) [µM] | TGI (ACHN renal) [µM] | TGI (OVCAR-3 ovarian) [µM] | TGI (SR leukemia) [µM] | TGI (HOP-92 NSCLC) [µM] | TGI (RPMI-8226 leukemia) [µM] |
| --- | --- | --- | --- | --- | --- | --- | --- | --- | --- | --- |
| CC[N+]1(C)CCC(O)(c2ccc(Cl)cc2)C(C(=O)c2ccc(Cl)cc2)C1 (stereo not drawn) | 31.8 | 27.7 | 36.2 | 48.3 | 38.5 | 33.5 | 43.3 | 36.4 | – | – |
| Cc1c(-c2cc3n(n2)C(c2cccs2)C(C#N)=C(c2ccccc2)N3)c(=O)n(-c2ccccc2)n1C (stereo not drawn) | > 100 | > 100 | – | > 100 | > 100 | – | > 100 | – | > 100 | – |
| COc1ccc(Cc2nc3cc(C(F)(F)F)ccc3n2CCCN(C)C)cc1 | > 100 | 41.9 | 28.7 | 35.6 | 41.1 | 79.9 | 46.1 | – | > 100 | – |
| C=C1c2c(cc3c(c2O)c(=O)c2ccccc2n3C)OC1(C)C | > 100 | 97.2 | > 100 | > 100 | 27.3 | > 100 | > 100 | – | 65.9 | > 100 |
| O=C1NC2(CCCCC2)N=C2C(Cl)CCCC12Cl (stereo not drawn) | > 100 | > 100 | > 100 | > 100 | > 100 | > 100 | > 100 | > 100 | – | > 100 |
| CC(C)OP(=O)(CN(C)/C(F)=N\C(F)(F)F)OC(C)C | > 100 | > 100 | > 100 | > 100 | > 100 | > 100 | > 100 | – | > 100 | – |
| N#Cc1[nH]c(=O)n(-c2ccc(Cl)cc2)c1N | > 10 | > 10 | > 10 | > 10 | > 10 | > 10 | > 10 | > 10 | – | > 10 |
| O=P(O)(O)C(O)/C=C/c1ccccc1 (stereo not drawn) | > 100 | > 100 | > 100 | > 100 | > 100 | > 100 | > 100 | – | > 100 | > 100 |
| CC(=O)Nc1ccc(CNc2cc(=O)[nH]c(=O)[nH]2)cc1 | > 100 | > 100 | > 100 | – | > 100 | > 100 | > 100 | > 100 | > 100 | > 100 |
| CCOc1ccc2c(c1)/C(=C(\C(Cl)=C(Cl)Cl)[N+](=O)[O-])N2 | > 100 | > 100 | > 100 | > 100 | > 100 | > 100 | > 100 | – | – | > 100 |
| CN1C(c2ccccc2)=CC(=O)C(O)=C(c2ccccc2)S1(=O)=O | > 100 | > 100 | > 100 | – | > 100 | > 100 | > 100 | > 100 | > 100 | > 100 |
| Cc1cccc(Nc2cn(COCc3ccccc3)c(=O)[nH]c2=O)c1 | > 100 | – | > 100 | > 100 | > 100 | > 100 | > 100 | > 100 | > 100 | > 100 |
| Cc1csc2nc(-c3ccc([N+](=O)[O-])cc3)c(/C=N/N=C(N)N)n12 | 4.18 | 3.11 | 3.41 | 3.46 | 3.2 | 2.71 | 5.7 | – | 2.22 | 4.12 |
| Nc1nc(Cl)cc(NCC2(CO)CCC(Cc3ccccc3)C2)n1 (stereo not drawn) | > 100 | > 90.6 | 46.6 | > 65.8 | 72.3 | > 100 | > 100 | – | > 93.8 | 62.7 |
| CC1CCCC2=C1C(c1ccc(Cl)cc1)n1c(s/c(=C\c3ccc(Cl)cc3)c1=O)=N2 (stereo not drawn) | > 100 | > 100 | > 100 | > 100 | – | > 100 | – | – | > 100 | > 100 |
| O=C1c2ccccc2-c2nc(-c3cccnc3)cc3c2c1nc1ccccc13 | > 100 | > 100 | > 100 | – | > 100 | > 100 | > 100 | > 100 | > 100 | > 100 |
| CCC1CC2CN3CCc4c([nH]c5c(-c6c(OC)ccc7c8c([nH]c67)[C@]6(C(=O)OC)CC7CC(CC)C6N(CC8)C7)c(O)ccc45)[C@](C(=O)OC)(C2)C13 (stereo partly drawn) | 35.8 | 68 | 78.2 | 28.7 | 34.4 | 64 | 30.9 | 45.4 | 26.6 | – |
| NC(=O)CCC(NCc1c2ccccc2[n+]([O-])c2ccccc12)C(=O)O (stereo not drawn) | > 100 | > 100 | > 100 | > 100 | > 100 | > 100 | > 100 | – | – | > 100 |
| CC(C)(C)[Si](C)(C)OCCCC#CCO | > 100 | > 100 | > 100 | > 100 | > 100 | > 100 | – | – | – | > 100 |
| CC(=O)Nc1ncc(Sc2ccccc2C(=O)O)s1 | > 100 | – | > 100 | > 100 | > 100 | > 100 | > 100 | > 100 | > 100 | > 100 |
| CC(NS(C)(=O)=O)c1ccccc1 (stereo not drawn) | > 100 | – | > 100 | – | > 100 | – | > 100 | > 100 | – | > 100 |
| O=C(c1cc(Cl)cc(Cl)c1)N(C(=S)OC12CC3CC(CC(C3)C1)C2)c1ccccc1 | > 100 | > 100 | 56.7 | > 100 | > 100 | > 100 | > 100 | > 100 | > 100 | – |
| COc1cc(N=NN(C)C)c(C(C)c2c3cc(OC)c(OC)cc3cc[n+]2C)cc1OC (stereo not drawn) | > 100 | > 100 | > 100 | > 100 | > 100 | > 100 | > 100 | – | – | 70.4 |
| CC(=O)c1ccc(Oc2ccc(/C(C)=N\N=C(N)N)cc2)cc1 | 22.5 | 9.25 | 4.76 | 7.53 | 12.8 | 17.4 | 4.89 | – | 13.8 | 8.7 |
| O=C(O)CSc1cc(-c2ccccc2)nc2ccccc12 | > 100 | – | > 100 | 67 | > 100 | > 100 | 49 | > 100 | > 100 | – |
